# Measurements as given in patent US20250303006A1, “BIOCOMPATIBLE ANTISEPTIC COMPOSITION CONTAINING 9-HYDROXYCALABAXANTHONE AND/OR RELATED XANTHONES” (UNIVERSITAT DE LES ILLES BALEARS, priority 2022, published 2025).
# Key:
# C. acnes = C. acnes culture and proliferation assay; assay type: cell-based, Cutibacterium acnes; conditions: 0.0002% HCX, 24 h
# Procedure: C. acnes 5684 (CECT, Valencia, Spain) was grown on Tryptic soy broth (TSB) (Scharlab), supplemented with 0.5 g/I L-Cysteine hydrochloride (Thermo Fisher Scientific), 1.0 mg/I hemin (Thermo Fisher Scientific) and 5.0 mg/I glucose (Scharlab) under anaerobic conditions (10% H2, 10% CO2 and 80% N2) achieved with an Oxoid Anaerogen™ sachet (Thermo Fisher Scientific) at 37° C. for 48 h. After overnight incubation, 1 mL of C. acnes was incubated with different concentrations of CHX (0.01, 0.005, 0.003, 0.001%) and HCX (0.003, 0.002, 0.001, 0.0002%) for 24 hours at 37° C. under anaerobic conditions achieved with an Oxoid Anaerogen™ sachet. Bacterial suspension without treatment served as negative control (C−). The optical density (OD) was measured at 600 nm at 0 h and 24 h to determine bacterial proliferation (PowerWave Ht). The bacterial growth rate (μ) was calculated during the exponential growth phase following the equation ln ODt−ln OD0=μ×(t−t0) (n=4). The live/Dead ratio of bacteria was determined using the LIVE/DEAD BacLight bacterial viability kit (Invitrogen), following the manufacturer's instructions. The assays were carried out in triplicate.
# P. aeruginosa = P. aeruginosa culture and proliferation assay; assay type: cell-based, Pseudomonas aeruginosa; conditions: 0.003% HCX, 3 h
# Procedure: P. aeruginosa ATCC 27853 was grown from frozen stocks in LB broth (Scharlab), at 37° C. under aerobic conditions in an orbital shaker (180 rpm). After overnight incubation, 1 mL of bacterial suspensions were incubated with different concentrations of CHX (0.01, 0.005, 0.003, 0.001, 0.0001%) and HCX (0.003, 0.002, 0.001, 0.0002, 0.00002%) for 3 hours at 37° C. under aerobic conditions in an orbital shaker (180 rpm). Bacterial suspension without treatment served as negative control (C−). The optical density (OD) was measured at 600 nm at 0 h and 3 h to determine bacterial proliferation (PowerWave Ht). The bacterial growth rate (μ) was calculated during the exponential growth phase following the equation ln ODt−ln OD0=μ×(t−t0) (n=3).
structure (smiles),measurement,setting,value
"COc1c(O)cc2oc3cc4c(c(O)c3c(=O)c2c1CC=C(C)C)C=CC(C)(C)O4 [HCX, 9-hydroxycalabaxanthone]",bacteria eliminated,C. acnes,96%
same,bacteria eliminated,P. aeruginosa,32%
